Laboratory results as given in patent US8841456B2, “1,5-naphthyridine derivative or salt thereof” (FUJIFILM Corporation, priority 2011, dated 2014).
Like-named read-outs stand apart in the source and are kept apart here.

Experiments:
human PI3Kα protein = target: T1, human PI3Kα protein (Homo sapiens, UniProt P42336); assay: PI3Kα enzyme assay (ADP-Glo kinase assay); format: biochemical; conditions: 3 nM PI3Kα, 50 μM PIP2, 100 μM ATP
T1 construct: purchased Carna Biosciences, Inc; host or cells: Baculovirus expression system
T1 sequence (P42336 whole entry): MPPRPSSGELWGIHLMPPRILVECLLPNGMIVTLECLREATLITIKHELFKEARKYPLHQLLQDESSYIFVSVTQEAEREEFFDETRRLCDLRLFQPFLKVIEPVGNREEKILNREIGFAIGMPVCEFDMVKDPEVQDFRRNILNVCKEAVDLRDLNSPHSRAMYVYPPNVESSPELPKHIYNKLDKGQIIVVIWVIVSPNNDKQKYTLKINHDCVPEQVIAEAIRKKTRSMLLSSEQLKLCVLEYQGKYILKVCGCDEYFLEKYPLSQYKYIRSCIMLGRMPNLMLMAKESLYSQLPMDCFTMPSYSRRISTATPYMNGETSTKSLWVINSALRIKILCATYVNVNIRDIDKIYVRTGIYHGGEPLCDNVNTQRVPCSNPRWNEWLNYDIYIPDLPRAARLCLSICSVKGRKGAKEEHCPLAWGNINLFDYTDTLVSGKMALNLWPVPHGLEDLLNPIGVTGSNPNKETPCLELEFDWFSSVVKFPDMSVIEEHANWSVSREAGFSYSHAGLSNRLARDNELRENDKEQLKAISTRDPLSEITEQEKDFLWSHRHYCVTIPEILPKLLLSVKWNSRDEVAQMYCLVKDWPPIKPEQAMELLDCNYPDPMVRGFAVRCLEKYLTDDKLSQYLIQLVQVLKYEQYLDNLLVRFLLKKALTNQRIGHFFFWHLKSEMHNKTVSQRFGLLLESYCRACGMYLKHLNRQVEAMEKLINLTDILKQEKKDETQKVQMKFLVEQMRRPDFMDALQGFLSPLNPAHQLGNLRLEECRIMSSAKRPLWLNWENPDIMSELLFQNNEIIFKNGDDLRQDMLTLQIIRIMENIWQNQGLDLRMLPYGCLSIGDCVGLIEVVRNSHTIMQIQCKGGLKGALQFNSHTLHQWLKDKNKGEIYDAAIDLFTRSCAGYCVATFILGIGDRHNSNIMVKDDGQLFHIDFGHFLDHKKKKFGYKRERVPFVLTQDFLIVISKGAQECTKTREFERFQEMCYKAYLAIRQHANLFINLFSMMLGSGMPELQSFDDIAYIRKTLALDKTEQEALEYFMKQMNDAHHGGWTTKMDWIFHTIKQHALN
T1 sequence (P27986 whole entry partner): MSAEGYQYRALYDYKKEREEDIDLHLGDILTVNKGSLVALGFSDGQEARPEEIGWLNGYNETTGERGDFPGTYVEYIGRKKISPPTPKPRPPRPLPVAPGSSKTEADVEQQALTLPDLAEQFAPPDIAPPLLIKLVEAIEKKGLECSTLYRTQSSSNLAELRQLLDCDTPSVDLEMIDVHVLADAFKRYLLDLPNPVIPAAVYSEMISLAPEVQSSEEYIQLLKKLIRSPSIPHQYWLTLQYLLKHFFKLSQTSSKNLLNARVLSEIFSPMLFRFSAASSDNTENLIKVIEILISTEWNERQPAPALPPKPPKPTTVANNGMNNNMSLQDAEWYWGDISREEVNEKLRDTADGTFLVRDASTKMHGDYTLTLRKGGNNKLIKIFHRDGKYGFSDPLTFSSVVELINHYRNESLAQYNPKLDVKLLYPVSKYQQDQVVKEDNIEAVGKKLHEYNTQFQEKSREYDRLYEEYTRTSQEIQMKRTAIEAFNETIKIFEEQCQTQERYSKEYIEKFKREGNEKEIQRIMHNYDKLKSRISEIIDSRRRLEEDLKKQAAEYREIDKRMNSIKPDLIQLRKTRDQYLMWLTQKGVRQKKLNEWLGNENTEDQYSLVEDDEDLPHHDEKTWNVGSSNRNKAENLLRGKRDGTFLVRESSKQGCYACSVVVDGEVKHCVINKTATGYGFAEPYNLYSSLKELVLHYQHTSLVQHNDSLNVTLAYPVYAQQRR
Experimental: Evaluation of the PI3Kα inhibitory activity of the compound of the present invention was carried out according to the method as described below.
For the PI3Kα enzyme assay, biotinylated product of a human PI3Kα protein produced using a Baculovirus expression system (Carna Biosciences, Inc.) was used. Further, for the detection of the enzyme activity, an ADP-Glo kinase assay (PROMEGA Corporation) was used.
10 μL of a reaction solution (3 nM PI3Kα, 40 mM Tris-HCl, 20 mM MgCl2, 0.1% BSA, pH 7.5) including the human PI3Kα protein and a test compound at a predetermined concentration was incubated at room temperature for 15 minutes. Thereafter, 5 μL of a mixed solution of L-α-Phosphatidylinositol 4,5-diphosphate (PIP2) (SIGMA-ALDLICH) which was a substrate and ATP(SIGMA-ALDLICH) was added thereto to a final concentration of 50 μM and 100 μM, respectively, and the reaction solution was further incubated at 25° C. for 60 minutes to carry out an enzyme reaction.
After the reaction, 15 μL of an ADP-Glo reagent (PROMEGA Corporation) was added and the resulting liquid was incubated at room temperature for 60 minutes, whereby the enzyme reaction was stopped. Thereafter, after further adding 30 μL of a Kinase Detection Reagent (PROMEGA Corporation) and standing the resulting solution at room temperature for 40 minutes, ADP produced by the enzyme reaction was quantified by luminescence intensity.
For the measurement of luminescence intensity, EnVision (PerkinElmer, Inc.) was used.
(§1) The inhibitory activity of the compounds was evaluated using an IC50 (50% inhibitory concentration). The IC50 was calculated using XLfit (IDBS).

[1] = target: T2, glutathione S-transferase (GST)-fusion human ERK2 protein (Homo sapiens, UniProt P28482); assay: ERK2 enzyme assay (LabChip mobility shift); format: biochemical; conditions: 2 nM ERK2, 4.25 μM FL-Peptide 8, 43 μM ATP
T2 construct: purchased Carna Biosciences, Inc; host or cells: E. coli expression system
T2 sequence (P28482 whole entry, the tested form may be a part): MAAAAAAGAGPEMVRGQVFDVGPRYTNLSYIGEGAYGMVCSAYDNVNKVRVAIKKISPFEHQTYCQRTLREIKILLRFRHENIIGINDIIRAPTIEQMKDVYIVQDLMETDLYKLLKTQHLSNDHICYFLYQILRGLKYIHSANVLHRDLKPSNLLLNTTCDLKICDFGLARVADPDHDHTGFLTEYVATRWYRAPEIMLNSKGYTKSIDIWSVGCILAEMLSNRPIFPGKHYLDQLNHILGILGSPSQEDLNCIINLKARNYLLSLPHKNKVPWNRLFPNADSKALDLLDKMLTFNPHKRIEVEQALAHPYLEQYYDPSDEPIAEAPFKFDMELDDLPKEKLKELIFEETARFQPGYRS
Experimental: Evaluation of the ERK2 inhibitory activity of the compound of the present invention was carried out according to the method as described below.
For the ERK2 enzyme assay, a glutathione S-transferase (GST)-fusion human ERK2 protein (Carna Biosciences, Inc.) produced using an E. coli expression system was used.
12 μL of the reaction solution (2 nM ERK2, 100 mM Hepes, 10 mM MgCl2, 1.5 mM DTT, 0.003% Brij35, pH 7.5) including the ERK2 protein and a test compound at a predetermined concentration was incubatedat room temperature for 15 minutes. Thereafter, 3 μL of a mixed solution of FL-Peptide 8 (5-FAM-IPTSPITTTYFFFKKK-COOH) (Caliper Lifescience) which was a substrate and ATP(SIGMA-ALDLICH) were added thereto to a final concentration of 4.25 μM and 43 μM, respectively. The reaction solution was further incubated at 25° C. for 120 minutes to carry out an enzyme reaction.
The enzyme reaction was stopped by adding 27 μL of a reaction-stopping solution (100 mM HEPES, 11.2 mM EDTA, 5.6% Brij35, pH 7.5) including a 0.5% Coating reagent 8 (PerkinElmer, Inc.) after the reaction. Thereafter, non-phosphorylated peptides and phosphorylated peptides were separated using LabChip Ez Reader (Caliper LifeScience, Inc.) to quantify the proportion of phosphorylated peptides.
as §1

[2] = IC50 class, read-out: PI3Kα Inhibitory Activity
[3] = IC50 class, read-out: ERK2 Inhibitory Activity

IC50 (human PI3Kα protein; [2]) [nM] | IC50 [1, 3] [nM] | IC50 (human PI3Kα protein; read-out: PI3Kα, IC50) [nM] | IC50 ([1]; read-out: ERK2, IC50) [nM] | SMILES
1000 to 10000 | > 10000 | – | – | COc1nc2ccc(NC(=O)NC3CCCC3)nc2cc1-c1cnn(C)c1 [Compound 0234]
< 100 | 100 to 1000 | – | – | CCN(CC)CCn1cc(-c2cnc3ccc(NC(=O)NC4CCCC4)nc3c2)cn1 [Compound 0025]
100 to 1000 | < 100 | – | – | O=C(NCC1CCC(F)(F)CC1)Nc1ccc2ncc(-c3cn[nH]c3)cc2n1 [Compound 0113]
< 100 | < 100 | – | – | O=C(Nc1ccc2ncc(-c3cnn(CCN4CCOCC4)c3)cc2n1)NC1C[C@H]2CC[C@@H]1C2 (stereo partly shown) [Compound 0114]
< 100 | < 100 | 4 | 49 | O=C(Nc1ccc2ncc(-c3cnn(CCCN4CCOCC4)c3)cc2n1)NC1CCCC1 [Compound 0044]
< 100 | < 100 | – | – | Cc1c(-c2cnn(C)c2)cnc2ccc(NC(=O)NC3CCCC3)nc12 [Compound 0237]
100 to 1000 | 1000 to 10000 | – | – | C#Cc1cnc2ccc(NC(=O)NC3CCCC3)nc2c1 [Compound 0017]
< 100 | 100 to 1000 | – | – | CC(C)(C)OC(=O)N1CC[C@H](NC(=O)Nc2ccc3ncc(-c4cn[nH]c4)cc3n2)C1 [Compound 0071]
100 to 1000 | < 100 | – | – | O=C(Nc1ccc2ncc(-c3cccc(O)c3)cc2n1)NC1CCCC1 [Compound 0033]
< 100 | > 10000 | – | – | COc1ccc(Nc2cnc3ccc(NC(=O)NC4CCCC4)nc3c2)cc1OC [Compound 0030]
< 100 | < 100 | – | – | CCCC(C)(C)NC(=O)Nc1ccc2ncc(-c3cn[nH]c3)cc2n1 [Compound 0184]
< 100 | < 100 | – | – | O=C(Nc1ccc2ncc(-c3cn[nH]c3)cc2n1)NC1CCCCC1 [Compound 0061]
< 100 | < 100 | – | – | CC(C)[C@H](C)NC(=O)Nc1ccc2ncc(-c3cn[nH]c3)cc2n1 [Compound 0083]
< 100 | < 100 | 84 | 42 | COc1ccc(-c2cnc3ccc(NC(=O)NC4CCCC4)nc3c2)cc1OC [Compound 0002]
< 100 | < 100 | – | – | CS(=O)(=O)Nc1cccc(-c2cnc3ccc(NC(=O)NC4CCCC4)nc3c2)c1 [Compound 0035]
< 100 | < 100 | – | – | COc1cc(-c2cnc3ccc(NC(=O)NC4CCCC4)nc3c2)cnc1O [Compound 0015]
100 to 1000 | 100 to 1000 | – | – | COC1CN(c2cnc3ccc(NC(=O)NC4CCCC4)nc3c2)C1 [Compound 0242]
100 to 1000 | 1000 to 10000 | – | – | CC(C)(C)OC(=O)C1CCN(c2cnc3ccc(NC(=O)NC4CCCC4)nc3c2)CC1 [Compound 0149]
< 100 | 100 to 1000 | – | – | O=C(Nc1ccc2ncc(-c3ccnc(O)c3)cc2n1)NC1CCCC1 [Compound 0023]
1000 to 10000 | 100 to 1000 | – | – | CN(C)CCCNC(=O)Nc1ccc2ncc(-c3cn[nH]c3)cc2n1 [Compound 0106]
100 to 1000 | < 100 | – | – | COCCCNC(=O)Nc1ccc2ncc(-c3cn[nH]c3)cc2n1 [Compound 0100]
100 to 1000 | < 100 | – | – | O=C(Nc1ccc2ncc(-c3ccoc3)cc2n1)NC1CCCC1 [Compound 0119]
< 100 | < 100 | – | – | C[C@H](CN(C)C)Cn1cc(-c2cnc3ccc(NC(=O)NC4CCCC4)nc3c2)cn1 [Compound 0244]
< 100 | < 100 | – | – | O=C1CN(CCn2cc(-c3cnc4ccc(NC(=O)NC5CCCC5)nc4c3)cn2)CCN1 [Compound 0052]
< 100 | < 100 | – | – | O=C(NCCCCC1OCCO1)Nc1ccc2ncc(-c3cn[nH]c3)cc2n1 [Compound 0174]
< 100 | < 100 | – | – | CC(C)CC(C)NC(=O)Nc1ccc2ncc(-c3cn[nH]c3)cc2n1 (stereo not shown) [Compound 0087]
100 to 1000 | < 100 | – | – | C[C@@H](NC(=O)Nc1ccc2ncc(-c3cn[nH]c3)cc2n1)c1ccccc1 [Compound 0139]

IC50 (human PI3Kα protein; [2]) [nM] | IC50 [1, 3] [nM] | IC50 (human PI3Kα protein; read-out: PI3Kα, IC50) [nM] | IC50 ([1]; read-out: ERK2, IC50) [nM] | SMILES
100 to 1000 | < 100 | – | – | O=C(Nc1ccc2ncc(-c3cn[nH]c3)cc2n1)NC1CC1 [Compound 0067]
100 to 1000 | < 100 | – | – | C[C@H](C[C@@H](C)Oc1ccccc1)NC(=O)Nc1ccc2ncc(-c3cn[nH]c3)cc2n1 [Compound 0161]
1000 to 10000 | < 100 | – | – | O=C(Nc1ccc2ncc(-c3cn[nH]c3)cc2n1)N[C@@H]1CCNC1 [Compound 0073]
< 100 | 100 to 1000 | – | – | O=C1CN(c2cnc3ccc(NC(=O)NC4CCCC4)nc3c2)CCN1 [Compound 0142]
100 to 1000 | < 100 | – | – | O=C(NC[C@@H]1CCCO1)Nc1ccc2ncc(-c3cn[nH]c3)cc2n1 [Compound 0193]
1000 to 10000 | < 100 | – | – | O=C(Nc1ccc2ncc(-c3cn[nH]c3)cc2n1)N[C@H]1CCNC1 [Compound 0074]
100 to 1000 | < 100 | – | – | Cn1cncc1-c1cnc2ccc(NC(=O)NC3CCCC3)nc2c1 [Compound 0238]
100 to 1000 | < 100 | – | – | O=C(Nc1ccc2ncc(-c3ccsc3)cc2n1)NC1CCCC1 [Compound 0118]
< 100 | < 100 | – | – | O=C(Nc1ccc2ncc(-c3cnn(CCN4CCOCC4)c3)cc2n1)NC1CCCC1 [Compound 0004]
< 100 | < 100 | – | – | O=C(Nc1ccc2ncc(-c3cnn(CCCCN4CCOCC4)c3)cc2n1)NC1CCCC1 [Compound 0207]
< 100 | < 100 | – | – | O=C(NCCC(F)(F)F)Nc1ccc2ncc(-c3cn[nH]c3)cc2n1 [Compound 0115]
100 to 1000 | 1000 to 10000 | – | – | O=C(Nc1ccc2ncc(-c3cc(O)no3)cc2n1)NC1CCCC1 [Compound 0128]
< 100 | < 100 | – | – | CS(=O)(=O)C1CCN(CCn2cc(-c3cnc4ccc(NC(=O)NC5CCCC5)nc4c3)cn2)CC1 [Compound 0218]
< 100 | < 100 | – | – | O=C(Nc1ccc2ncc(-c3cn[nH]c3)cc2n1)NC1CCC1 [Compound 0084]
100 to 1000 | < 100 | – | – | O=C(NCC1CC1)Nc1ccc2ncc(-c3cn[nH]c3)cc2n1 [Compound 0186]
100 to 1000 | 1000 to 10000 | – | – | CC(C)(C)OC(=O)N1CCN(c2cnc3ccc(NC(=O)NC4CCCC4)nc3c2)CC1 [Compound 0012]
< 100 | 100 to 1000 | – | – | CN(C)CCCn1cc(-c2cnc3ccc(NC(=O)NC4CCCC4)nc3c2)cn1 [Compound 0210]
100 to 1000 | < 100 | – | – | COc1cccc(CCCCNC(=O)Nc2ccc3ncc(-c4cn[nH]c4)cc3n2)c1 [Compound 0169]
< 100 | < 100 | – | – | CN1CCC(n2cc(-c3cnc4ccc(NC(=O)NC5CCCC5)nc4c3)cn2)CC1 [Compound 0228]
100 to 1000 | < 100 | – | – | O=C(Nc1ccc2ncc(-c3cn[nH]c3)cc2n1)NC1CCOC1 (stereo not shown) [Compound 0075]
< 100 | < 100 | 60 | < 3 | C[C@@H](NC(=O)Nc1ccc2ncc(-c3cn[nH]c3)cc2n1)C1CCCCC1 [Compound 0080]
< 100 | < 100 | – | – | CC(=O)OCCCCn1cc(-c2cnc3ccc(NC(=O)NC4CCCC4)nc3c2)cn1 [Compound 0249]
< 100 | < 100 | – | – | O=C(Nc1ccc2ncc(-c3cnn(CCCN4CCNCC4)c3)cc2n1)NC1CCCC1 [Compound 0212]
100 to 1000 | < 100 | – | – | O=C(Nc1ccc2ncc(-c3cn[nH]c3)cc2n1)NC1CCOCC1 [Compound 0076]
< 100 | < 100 | – | – | O=C(Nc1ccc2ncc(N3CC(O)C3)cc2n1)NC1CCCC1 [Compound 0038]
100 to 1000 | 100 to 1000 | – | – | O=C(Nc1ccc2ncc(-c3ccccc3)cc2n1)NC1CCCC1 [Compound 0006]
